Laboratory results: DBAASP
Values after ≈ are worked out from the molar mass of the structure shown. Values joined by “and” are separate entries in the source; they are usually repeats but may differ in a detail not shown here. Equal values may be shown once.

What was measured:
Assay in all cases: ≥ marks a high value that may be exact or a test limit, other limits are often not marked, values filed in µg/mL are converted to µM
[1] = system: Yersinia enterocolitica O:9 96-C
[2] = system: Candida albicans ATCC 10261
Klebsiella pneumoniae = system: Klebsiella pneumoniae
[3] = system: Pseudomonas aeruginosa ATCC 27853
Candida albicans SC5314 = system: Candida albicans SC5314
Serratia marcescens = system: Serratia marcescens
[4] = system: Candida albicans CIB 45437
[5] = system: Staphylococcus aureus ATCC 25923
[6] = system: Escherichia coli ATCC 25922
[7] = system: Staphylococcus aureus NCTC 8325
[8] = system: Staphylococcus aureus CIB 85462
[9] = system: Candida albicans ATCC 90028
[10] = system: Escherichia coli CIB 84492
Escherichia coli O157:H7 = system: Escherichia coli O157:H7
[11] = system: Staphylococcus aureus 1056
[12] = system: Escherichia coli DH5alpha
[13] = system: Bacillus thuringiensis serovar israelensis
[14] = system: Candida glabrata ATCC 2001
[15] = system: Escherichia coli D31 CGSC 5165
[16] = system: Ureaplasma urealyticum strain 1
[17] = system: Ureaplasma urealyticum strain 2
[18] = system: Candida glabrata IFM 46861
[19] = system: Candida tropicalis IFM 46862
Candida krusei IFN 5462 = system: Candida krusei IFN 5462
[20] = system: Lactococcus lactis subsp. cremoris I116
Listeria ivanovii LMA 94 = system: Listeria ivanovii LMA 94
[21] = system: Staphylococcus aureus CIP 677
[22] = system: Klebsiella pneumoniae CIP 8291

In the case of `CC[C@H](C)[C@H](NC(=O)[C@H](C)NC(=O)[C@@H](NC(=O)[C@H](Cc1cnc[nH]1)NC(=O)[C@@H]1CCCN1C(=O)[C@H](CC(C)C)NC(=O)[C@@H](NC(=O)[C@H](C)NC(=O)[C@H](CCCN=C(N)N)NC(=O)CNC(=O)[C@@H](NC(=O)[C@H](CCCN=C(N)N)NC(=O)[C@H](C)NC(=O)[C@@H](NC(=O)[C@@H](NC(=O)[C@H](CCCN=C(N)N)NC(=O)[C@@H](NC(=O)[C@H](C)NC(=O)[C@H](CO)NC(=O)[C@H](CCCN=C(N)N)NC(=O)[C@H](CC(C)C)NC(=O)[C@H](C)N)C(C)C)[C@@H](C)O)C(C)C)C(C)C)C(C)C)C(C)C)C(N)=O` [ALRSAVRTVARVGRAVLPHVAI], the MIC [1] is reported as 3.1 µM and 1.6 µM, the MIC [2] is reported as 6.3 µM and 3.1 µM and the MIC (Klebsiella pneumoniae) is reported as > 25 µM and 12.5 µM. For the same molecule, the MIC [3] was 12.5 µM and 6.3 µM, the MIC (Candida albicans SC5314) was 6.3 µM and 3.1 µM and the MIC (Serratia marcescens) was 25 µM (≈ 57.8 µg/mL).
`CC(C)C[C@H](NC(=O)CN)C(=O)N[C@@H](CC(C)C)C(=O)N[C@@H](CC(=O)O)C(=O)N[C@H](C(=O)N[C@@H](Cc1ccccc1)C(=O)N[C@@H](CCCCN)C(=O)N[C@@H](CC(N)=O)C(=O)N[C@@H](CC(C)C)C(=O)N[C@@H](C)C(=O)N[C@@H](CC(C)C)C(=O)N[C@@H](CC(N)=O)C(=O)N[C@@H](C)C(=O)N[C@@H](C)C(=O)N[C@@H](CCCCN)C(=O)N[C@@H](CO)C(=O)N[C@@H](C)C(=O)NCC(=O)N[C@H](C(=O)N[C@@H](CO)C(=O)N[C@H](C(=O)N[C@@H](CC(C)C)C(=O)N[C@@H](CC(N)=O)C(=O)N[C@@H](CO)C(=O)N[C@@H](CC(C)C)C(=O)N[C@@H](CO)C(=O)N[C@H]1CSSC[C@@H](C(=O)O)NC(=O)[C@H]([C@@H](C)O)NC(=O)[C@H](CCCCN)NC(=O)[C@H](CO)NC(=O)[C@H](CC(C)C)NC(=O)[C@H](CCCCN)NC1=O)C(C)C)C(C)C)[C@@H](C)O` [GLLDTFKNLALNAAKSAGVSVLNSLSCKLSKTC] showed an MIC [4] of 19 µM (≈ 64 µg/mL), an MIC [5] of 19 µM (≈ 64 µg/mL) and an MIC [6] of 12.5 µM (≈ 42.1 µg/mL). It also gave an MIC [7] of at least 50 µM, an MIC [8] of 19 µM (≈ 64 µg/mL) and an MIC [9] of at least 100 µM. It also gave an MIC [10] of at least 38 µM.
For `CC[C@H](C)[C@H](N)C(=O)N1CCC[C@H]1C(=O)N[C@@H](CCCN=C(N)N)C(=O)N1CCC[C@H]1C(=O)N[C@@H](CC(C)C)C(=O)N[C@@H](CC(=O)O)C(=O)N1CCC[C@H]1C(=O)N[C@H]1CSSC[C@@H]2NC(=O)[C@H](CO)NC(=O)[C@H](CCCCN)NC(=O)CNC(=O)[C@H](CC(N)=O)NC(=O)[C@H](CCCN=C(N)N)NC(=O)[C@@H]3CSSC[C@H](NC(=O)[C@H](CCCN=C(N)N)NC(=O)CNC(=O)[C@H](CC(N)=O)NC(=O)[C@H](CCC(N)=O)NC(=O)[C@H](C)NC(=O)[C@H]([C@@H](C)CC)NC1=O)C(=O)N[C@@H](Cc1ccccc1)C(=O)N[C@@H]([C@@H](C)O)C(=O)NCC(=O)N[C@@H]([C@@H](C)CC)C(=O)N[C@@H](CSSC[C@@H](C(=O)N[C@@H](CCCN=C(N)N)C(=O)N[C@@H](CCCN=C(N)N)C(=O)N[C@@H](CCCN=C(N)N)C(=O)O)NC2=O)C(=O)N[C@@H](CCCN=C(N)N)C(=O)N[C@@H](Cc1ccc(O)cc1)C(=O)N1CCC[C@H]1C(=O)N[C@@H](Cc1ccc(O)cc1)C(=O)N[C@@H](Cc1ccccc1)C(=O)N[C@@H](Cc1c[nH]c2ccccc12)C(=O)N[C@@H]([C@@H](C)CC)C(=O)NCC(=O)N[C@@H]([C@@H](C)O)C(=O)N3` [IPRPLDPCIAQNGRCFTGICRYPYFWIGTCRNGKSCCRRR], the MIC (Escherichia coli O157:H7) was 0.515 µM (≈ 2.41 µg/mL) and the MIC [11] was 0.594 µM (≈ 2.78 µg/mL).
Molecule `CC[C@H](C)[C@H](NC(=O)[C@H](Cc1ccccc1)NC(=O)[C@H](CCCCN)NC(=O)[C@H](C)NC(=O)[C@@H](NC(=O)[C@H](CO)NC(=O)[C@H](CCCCN)NC(=O)[C@H](CCSC)NC(=O)[C@@H](NC(=O)[C@H](CCCCN)NC(=O)[C@H](Cc1ccccc1)NC(=O)[C@H](Cc1c[nH]c2ccccc12)NC(=O)[C@H](CCCCN)NC(=O)[C@@H](NC(=O)[C@@H](N)CCCCN)[C@@H](C)CC)[C@@H](C)O)[C@@H](C)CC)C(=O)N[C@@H](C)C(=O)N[C@@H](CCCCN)C(=O)N[C@@H](CCC(=O)O)C(=O)N[C@@H](CCC(N)=O)C(=O)N[C@@H](CCSC)C(=O)N[C@@H](CCCCN)C(=O)N[C@@H](CCCCN)C(=O)N[C@@H](Cc1cnc[nH]1)C(=O)N[C@@H](CC(C)C)C(=O)NCC(=O)NCC(=O)N[C@@H](CCC(=O)O)C(=O)O` [KIKWFKTMKSIAKFIAKEQMKKHLGGE] has an MIC [12] of at least 40 µM, an MIC [13] of 24.5 µM (≈ 78.6 µg/mL) and an MIC [14] of at least 122 µM. It also gave an MIC [15] of 10 µM (≈ 32.1 µg/mL).
`CC[C@H](C)[C@H](NC(=O)[C@H](CCSC)NC(=O)[C@H](CC(=O)O)NC(=O)[C@@H](NC(=O)[C@H](CCSC)NC(=O)[C@H](Cc1ccccc1)NC(=O)[C@H](CC(N)=O)NC(=O)[C@H](Cc1ccccc1)NC(=O)CNC(=O)[C@H](CCCCN)NC(=O)[C@H](CC(N)=O)NC(=O)[C@H](CO)NC(=O)[C@@H](N)CCCN=C(N)N)C(C)C)C(=O)N[C@@H](CCC(N)=O)C(=O)N[C@@H](C)C(=O)N[C@@H](CC(C)C)C(=O)N[C@@H](CO)C(=O)N[C@@H](CCCCN)C(N)=O` [RSNKGFNFMVDMIQALSK] was tested, and the MIC [16] was at least 46 µM and the MIC [17] was at least 46 µM.
`CC(C)[C@H](N)C(=O)N[C@@H](CO)C(=O)N[C@@H](CCCN=C(N)N)C(=O)N[C@@H](CCCN=C(N)N)C(=O)N[C@@H](CCCN=C(N)N)C(=O)N[C@@H](CCCN=C(N)N)C(=O)N[C@@H](CCCN=C(N)N)C(=O)N[C@@H](CCCN=C(N)N)C(=O)NCC(=O)NCC(=O)N[C@@H](CCCN=C(N)N)C(=O)N[C@@H](CCCN=C(N)N)C(=O)N[C@@H](CCCN=C(N)N)C(=O)N[C@@H](CCCN=C(N)N)C(=O)O` [VSRRRRRRGGRRRR] was tested, and the MIC [18] was 2.5 µM (≈ 4.7 µg/mL), the MIC [19] was 2.5 µM (≈ 4.7 µg/mL) and the MIC (Candida krusei IFN 5462) was 2.5 µM (≈ 4.7 µg/mL). The MIC (Candida albicans SC5314) was 1.6 µM and 2.5 µM.
For `CC[C@H](C)[C@H](NC(=O)[C@H](CCCCN)NC(=O)[C@H](CC(C)C)NC(=O)[C@H](C)NC(=O)[C@H](CO)NC(=O)CNC(=O)[C@H](CC(C)C)NC(=O)[C@@H](N)Cc1c[nH]c2ccccc12)C(=O)NCC(=O)N[C@@H](C)C(=O)N[C@@H](CCCCN)C(=O)N[C@@H](CC(C)C)C(=O)N[C@@H](CC(C)C)C(=O)N1CCC[C@H]1C(=O)N[C@@H](CO)C(=O)N[C@H](C(=O)N[C@H](C(=O)NCC(=O)N[C@@H](CC(C)C)C(=O)N[C@@H](Cc1ccccc1)C(=O)N[C@@H](CCCCN)C(=O)N[C@@H](CCCCN)C(=O)N[C@@H](CCCCN)C(=O)N[C@@H](CCCCN)C(=O)N[C@@H](CCC(N)=O)C(=O)O)C(C)C)C(C)C` [WLGSALKIGAKLLPSVVGLFKKKKQ], the MIC [20] was 4 µM (≈ 10.8 µg/mL), the MIC (Listeria ivanovii LMA 94) was 8 µM (≈ 21.7 µg/mL) and the MIC [21] was 8 µM (≈ 21.7 µg/mL). For the same molecule, the MIC [22] was at least 64 µM.
